Patent US6251893A, “Bicyclic piperidine and piperazine compounds having 5-HT6 receptor affinity” (NPS Allelix Corp., priority 1998, dated 2001)

Tests used:
5-HT7 receptor = 5-HT7 receptor (Homo sapiens, UniProt P34969); test: Binding to 5-HT7 receptor (selectivity); set-up: dose or concentration left out as unconfirmed; details: selectivity versus 5-HT6; read-out: percent inhibition for the 5-HT7 receptor
5HT2C receptor = biological target: T1, 5HT2C receptor (Homo sapiens, UniProt P28335); test: Binding to 5HT2C receptor (selectivity); details: selectivity versus 5-HT6; read-out: percent inhibition for the 5HT2C receptor
T1 sequence (P28335 33-458): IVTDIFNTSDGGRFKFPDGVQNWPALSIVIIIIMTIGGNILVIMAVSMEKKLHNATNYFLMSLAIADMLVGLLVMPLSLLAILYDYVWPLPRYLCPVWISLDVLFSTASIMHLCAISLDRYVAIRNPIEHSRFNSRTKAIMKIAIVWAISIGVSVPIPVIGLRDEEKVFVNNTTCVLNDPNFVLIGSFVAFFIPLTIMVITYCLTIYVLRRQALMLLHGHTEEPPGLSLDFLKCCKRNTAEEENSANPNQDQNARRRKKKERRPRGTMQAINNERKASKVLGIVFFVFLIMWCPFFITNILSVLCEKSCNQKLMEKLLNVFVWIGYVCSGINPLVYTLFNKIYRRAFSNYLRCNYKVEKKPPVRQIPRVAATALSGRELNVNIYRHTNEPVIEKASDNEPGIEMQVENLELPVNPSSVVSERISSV

human 5HT6 receptor [1] = biological target: T2, human 5HT6 receptor (Homo sapiens, UniProt P50406); test: Binding affinity for the 5-HT6 receptor (3H-LSD displacement); set-up: expressed in transfected cells; details: 100 nM test compound; 3H-LSD (2 nM); 60 minute incubation at 37° C; read-out: percent inhibition of radioligand binding for the 5-HT6 receptor
T2 sequence (P50406 whole entry): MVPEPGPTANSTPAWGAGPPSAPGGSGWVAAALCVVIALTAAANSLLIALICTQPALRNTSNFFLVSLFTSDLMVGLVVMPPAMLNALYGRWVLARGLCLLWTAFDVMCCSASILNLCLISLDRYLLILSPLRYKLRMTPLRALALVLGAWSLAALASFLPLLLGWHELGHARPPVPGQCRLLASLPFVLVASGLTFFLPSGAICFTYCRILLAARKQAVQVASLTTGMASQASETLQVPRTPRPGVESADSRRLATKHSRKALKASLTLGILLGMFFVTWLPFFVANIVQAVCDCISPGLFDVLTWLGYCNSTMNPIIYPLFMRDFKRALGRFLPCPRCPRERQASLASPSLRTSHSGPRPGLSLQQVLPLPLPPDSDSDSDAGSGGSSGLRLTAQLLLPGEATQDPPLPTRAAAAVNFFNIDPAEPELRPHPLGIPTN
Experimental: Binding Affinity for the 5-HT6 Receptor
The assay protocol generally entailed the incubation of membranes prepared from cells expressing the 5-HT6 receptor with ^3 H-LSD (2 nM). Increasing levels of the test compound were incubated with the radioligand and the membrane homogenates prepared from the recombinant cells. After a 60 minute incubation at 37° C., the incubation was terminated by vacuum filtration. The filters were washed with buffer and the filters were counted for radioactivity using liquid scintillation spectrometry. […] Concentrations ranging from 10^-11 M to 10^-5 M of the test compound were evaluated. […] Affinity for the 5-HT6 receptor is expressed as the amount (in percent) of binding of the radioligand that is inhibited in the presence of 100 nM of test compound. A greater percent inhibition indicates greater affinity for the 5-HT6 receptor.

5-HT2A receptor = 5-HT2A receptor (Homo sapiens, UniProt P28223); test: Binding to 5-HT2A receptor (selectivity); set-up: dose or concentration left out as unconfirmed; details: selectivity versus 5-HT6; read-out: percent inhibition for the 5-HT2A receptor
Sequence of 5-HT2A receptor (P28223 whole entry): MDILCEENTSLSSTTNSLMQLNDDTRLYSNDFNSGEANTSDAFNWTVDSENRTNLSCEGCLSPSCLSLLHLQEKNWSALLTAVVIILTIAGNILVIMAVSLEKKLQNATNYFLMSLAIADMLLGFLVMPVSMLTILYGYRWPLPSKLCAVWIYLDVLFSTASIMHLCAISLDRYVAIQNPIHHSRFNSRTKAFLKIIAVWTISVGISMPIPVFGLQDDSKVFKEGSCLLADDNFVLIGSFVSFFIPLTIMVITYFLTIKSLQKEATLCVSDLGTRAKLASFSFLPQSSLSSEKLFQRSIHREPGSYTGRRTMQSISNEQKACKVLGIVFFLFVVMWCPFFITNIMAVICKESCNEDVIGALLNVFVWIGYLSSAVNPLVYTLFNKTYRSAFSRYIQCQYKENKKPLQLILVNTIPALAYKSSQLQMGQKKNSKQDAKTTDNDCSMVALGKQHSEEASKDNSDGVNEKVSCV

human 5HT6 receptor [2] = biological target: T2, human 5HT6 receptor; test: Functional assay: reversal of serotonin-stimulated adenyl cyclase activity (cAMP) in HEK 293 cells stably expressing the human 5HT6 receptor; assay type: cell-based; set-up: cAMP functional assay in whole cells; details: 100 nM and 10 μM test compound with serotonin
Experimental: The 5HT6 receptor responds to serotonin and other agonists by increasing adenyl cyclase mediated production of cyclic AMP. Particular test compounds were assayed for their effect on adenyl cyclase activity using the procedure described below.
Compounds acting as antagonists at the 5HT6 receptor will antagonize the agonist effect of serotonin and thus, will block the serotonin-inducedincrease in adenyl cyclase activity.
HEK 293 cells stably expressing the human 5HT6 receptor were plated in 6 well plates in DMEM (Dulbecco's Modified Eagle Medium)/F12 (Nutrient Mixture F12-Ham) media with 10% FCS (fetal calf serum) and G418 (Geneticen Disulfate, 500 ug/ml), and incubated at 37° C. in a CO2 incubator. The cells were allowed to grow to about 70% confluence before use in the assay.
The culture medium of each well was removed, and the wells were washed once with serum free media. Then 2 ml of SFM+IBMX medium (SFM with 0.5 mM IBMX, 3-isobutyl-1-methylxanthine, 0.1% ascorbic acid and 10 mM pargyline) was added to each well and the wells were incubated at 37° C. for 10 min. Following incubation, the SFM+IBMX medium was removed from each well and fresh SFM+IBMX media was added to the wells separately with one of a) serotonin (1 μM final concentration); b) test compound (100 nM and 10 μM, to test for agonist activity); and c) test compound (100 nM and 10 μM) along with serotonin ([…], to test for antagonist activity). Basal adenyl cyclase activity was determined from wells with only SFM+IBMX media added.
The cells were then incubated at 37° C. for 30 minutes in a CO2 incubator. Following incubation, the media were removed from each well. The wells were washed once with 1 ml of PBS (phosphate buffered saline). Each well was then treated with 1 mL cold 95% ethanol:5 mM EDTA (2:1) at 4° C. for 1 hour. The cells from each well were then scraped and transferred into individual Eppendorf tubes. The tubes were centrifuged for 5 minutes at 4° C., and the supernatants were transferred to new Eppendorf tubes and stored at 4° C. The pellets were discarded and the supernatants were stored at 4° C. until assayed for cAMP concentration. cAMP content for each extract was determined in duplicate by EIA (enzyme-immunoassay) using the Amersham Biotrak cAMP EIA kit (Amersham RPN 225). Final results were expressed as % basal response for agonists and % reversal of serotonin response for antagonists.
The total stimulation of adenyl cyclase by serotonin (So) was determined as the difference in concentration of cAMP in the serotonin-treated cells (Cd) and the basal-treated cells (Cf).
The net stimulation (S) of basal adenyl cyclase by an agonist test compound was determined as the difference in cAMP concentration in the drug-treatedcell (C) and the basal-treated cells (Cf).
The net stimulation (Ss) of basal adenyl cyclase by serotonin in the presence of an antagonist test compound was determined as the difference in cAMP concentration in the serontonin-drug-treated cells (Cs) and the basal-treated cells (Cf).
The ability of the antagonist test compound to reverse the serotonin stimuation of adenyl cyclase activity (% reversal, % R) was determined by the formula: […]

Sequence of 5-HT7 receptor (P34969 whole entry): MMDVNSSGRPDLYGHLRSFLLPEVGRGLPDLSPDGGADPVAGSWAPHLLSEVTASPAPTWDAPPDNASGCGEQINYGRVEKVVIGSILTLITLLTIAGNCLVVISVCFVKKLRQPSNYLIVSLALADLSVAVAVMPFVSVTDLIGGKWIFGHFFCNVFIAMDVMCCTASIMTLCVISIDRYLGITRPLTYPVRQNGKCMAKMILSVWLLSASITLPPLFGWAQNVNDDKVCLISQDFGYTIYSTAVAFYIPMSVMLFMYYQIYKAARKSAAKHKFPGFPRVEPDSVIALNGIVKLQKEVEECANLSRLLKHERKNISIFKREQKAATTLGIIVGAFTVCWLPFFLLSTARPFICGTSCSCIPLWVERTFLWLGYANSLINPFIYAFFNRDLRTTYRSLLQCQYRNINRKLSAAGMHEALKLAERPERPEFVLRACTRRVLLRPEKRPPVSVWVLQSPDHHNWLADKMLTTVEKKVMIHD

Compound | inhibition (5-HT7 receptor) [%] | inhibition at 0.1 µM (5HT2C receptor) [%] | inhibition at 0.1 µM (human 5HT6 receptor [1]) [%] | inhibition (5-HT2A receptor) [%] | reversal of serotonin stimulation of adenyl cyclase (5-HT6 receptor antagonism) (human 5HT6 receptor [2])
O=S(=O)(c1cccc2ccccc12)n1cc(C2=CCN3CCCC3C2)c2cc(F)cc(F)c21 (racemic) [Example 6kk, 5,7-Difluoro-3-[(8a-R,S)-1,2,3,5,8,8a-hexahydro-7-indolizinyl]-1-naphthalenesulfonylindole] | < 20 | < 20 | > 80 | < 20 | 
O=S(=O)(c1ccc2ccccc2c1)n1cc(N2CCN3CCCCC3C2)c2ccccc21 (racemic) [Example 6l, 3-[(6-R,S)-1,4-Diaza[4.4. 0]bicyclodecan-4-yl]-1-(2-naphthalenesulfonyl)indole] | < 20 | < 20 | > 80 | < 20 | 
O=S(=O)(c1ccc2ccccc2c1)n1cc(C2=CCN3CCCC3C2)c2cc(F)cc(F)c21 (racemic) [Example 6ll, 5,7-Difluoro-3-[(8a-R,S)-1,2,3,5,8,8a-hexahydro-7-indolizinyl]-2-naphthalenesulfonylindole] | < 20 | < 20 | > 80 | < 20 | 
O=S(=O)(c1cccc2ccccc12)n1cc(N2CCN3CCCCC3C2)c2ccccc21 (racemic) [Example 6m, 3-[(6-R,S)-1,4-Diaza[4.4. 0]bicyclodecan-4-yl]-1-(1-naphthalenesulfonyl)indole] | < 20 | < 20 | > 80 | < 20 | 
COc1ccc2c(c1)c(C1=CCN3CCCC3C1)cn2S(=O)(=O)c1ccccc1 (racemic) [Example 6mm, 5-Methoxy-3-[(8a-R,S)-1,2,3,5,8,8a-hexahydro-7-indolizinyl]-1-phenylsulfonylindole] | < 20 | < 20 | > 80 | < 20 | 
O=S(=O)(c1ccc(Br)cc1)n1cc(N2CCN3CCCCC3C2)c2ccccc21 (racemic) [Example 6n, 1-(4-Bromophenylsulfonyl)-3-[(6-R,S)-1,4-diaza[4.4. 0]bicyclodecan-4-yl]indole] | < 20 | < 20 | > 80 | < 20 | 
COc1ccc2c(c1)c(C1=CCN3CCCC3C1)cn2S(=O)(=O)c1cccc2ccccc12 (racemic) [Example 6nn, 5-Methoxy-3-[(8a-R,S)-1,2,3,5,8,8a-hexahydro-7-indolizinyl]-1-naphthalenesulfonylindole] | < 20 | < 20 | > 80 | < 20 | 
COc1ccc2c(c1)c(C1=CCN3CCCC3C1)cn2S(=O)(=O)c1ccc2ccccc2c1 (racemic) [Example 6oo, 5-Methoxy-3-[(8a-R,S)-1,2,3,5,8,8a-hexahydro-7-indolizinyl]-2-naphthalenesulfonylindole] | < 20 | < 20 | > 80 | < 20 | 
O=S(=O)(c1ccc(Cl)cc1)n1cc(N2CCN3CCCCC3C2)c2ccccc21 (racemic) [Example 6p, 1-(4-Chlorophenylsulfonyl)-3-[(6-R,S)-1,4-diaza[4.4. 0]bicyclodecan-4-yl]indole] | < 20 | < 20 | > 80 | < 20 | 
Cc1ccc2c(c1)c(C1=CCN3CCCC3C1)cn2S(=O)(=O)c1ccccc1 (racemic) [Example 6pp, 5-Methyl-3-[(8a-R,S)-1,2,3,5,8,8a-hexahydro-7-indolizinyl]-1-phenylsulfonylindole] | < 20 | < 20 | > 80 | < 20 | 
Cc1ccc2c(c1)c(C1=CCN3CCCC3C1)cn2S(=O)(=O)c1cccc2ccccc12 (racemic) [Example 6qq, 5-Methyl-3-[(8a-R,S)-1,2,3,5,8,8a-hexahydro-7-indolizinyl]-1-naphthalenesulfonylindole] | < 20 | < 20 | > 80 | < 20 | 
Cc1ccc2c(c1)c(C1=CCN3CCCC3C1)cn2S(=O)(=O)c1ccc2ccccc2c1 (racemic) [Example 6rr, 5-Methyl-3-[(8a-R,S)-1,2,3,5,8,8a-hexahydro-7-indolizinyl]-2-naphthalenesulfonylindole] | < 20 | < 20 | > 80 | < 20 | 
Cc1cccc2c(C3=CCN4CCCC4C3)cn(S(=O)(=O)c3ccccc3)c12 (racemic) [Example 6ss, 7-Methyl-3-[(8a-R,S)-1,2,3,5,8,8a-hexahydro-7-indolizinyl]-1-phenylsulfonylindole] | < 20 | < 20 | > 80 | < 20 | 
Cc1cccc2c(C3=CCN4CCCC4C3)cn(S(=O)(=O)c3cccc4ccccc34)c12 (racemic) [Example 6tt, 7-Methyl-3-[(8a-R,S)-1,2,3,5,8,8a-hexahydro-7-indolizinyl]-1-naphthalenesulfonylindole] | < 20 | < 20 | > 80 | < 20 | 
O=S(=O)(c1ccccc1)n1cc(N2CCN3CCCCC3C2)c2ccccc21 (racemic) [Example 6u, 3-[(6-R,S)-1,4-Diaza[4.4.0]bicyclodecan-4-yl]-1-(phenylsulfonyl)indole] | < 20 | < 20 | > 80 | < 20 | 
O=S(=O)(c1ccc2ccccc2c1)n1cc(C2=CCN3CCCC3C2)c2cc(F)ccc21 (racemic) [Example 6z, 5-Fluoro-3-[(8a-R,S)-1,2,3,5,8,8a-hexahydro-7-indolizinyl]-1-(2-naphthalenesulfonyl)indole] | < 20 | < 20 | > 80 | < 20 | 
O=S(=O)(c1ccccc1)n1cc(C2CCN3CCCC3C2)c2cc(F)ccc21 (single isomer, unassigned; isomer ii) [Example 10d, 5-Fluoro-3-[(7R or 7S)(8a-R,S)-octahydrohydro-7-indolizinyl]-1-phenylsulfonylindole, Isomer II] |  |  |  |  | able to reverse the serotonin stimulation of adenyl cyclase
